Source: patent US7514455B2, “Inhibitors against complex II of electron transport system” (The Kitasato Institute, priority 2002, dated 2009)
Read-outs that look alike come from different tables or passages of the source.

How the values were obtained:
Assay type in all cases: biochemical
[1] = biological target: T1, bovine heart complex II (succinate-ubiquinone oxidoreductase) (Bos taurus, UniProt P35720+Q3T189+Q95123); assay: Inhibition of succinate dehydrogenase activity of bovine heart complex II (DCIP reduction)
T1 construct: of the bovine heart, mitochondria prepared according to the method of S. Takamiya et al; from tissue; host or cells: bovine heart mitochondria
T1 sequence (P31039 44-665 partner): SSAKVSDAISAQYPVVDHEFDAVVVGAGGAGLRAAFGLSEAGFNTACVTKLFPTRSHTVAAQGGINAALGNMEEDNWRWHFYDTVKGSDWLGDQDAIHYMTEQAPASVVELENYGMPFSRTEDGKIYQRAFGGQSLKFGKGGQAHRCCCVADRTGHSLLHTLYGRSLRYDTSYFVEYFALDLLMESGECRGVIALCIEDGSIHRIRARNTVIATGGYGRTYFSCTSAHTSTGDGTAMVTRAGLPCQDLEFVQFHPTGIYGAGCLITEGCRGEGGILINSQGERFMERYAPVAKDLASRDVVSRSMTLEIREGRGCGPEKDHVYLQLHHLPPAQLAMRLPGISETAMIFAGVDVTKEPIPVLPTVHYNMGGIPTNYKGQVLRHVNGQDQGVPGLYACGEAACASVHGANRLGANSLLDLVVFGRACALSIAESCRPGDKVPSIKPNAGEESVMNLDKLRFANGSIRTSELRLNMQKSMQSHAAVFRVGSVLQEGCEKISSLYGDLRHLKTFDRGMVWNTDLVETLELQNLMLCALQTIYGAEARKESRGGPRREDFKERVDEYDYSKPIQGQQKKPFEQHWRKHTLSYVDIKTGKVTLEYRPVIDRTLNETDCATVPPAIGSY
T1 sequence (Q3T189 29-280): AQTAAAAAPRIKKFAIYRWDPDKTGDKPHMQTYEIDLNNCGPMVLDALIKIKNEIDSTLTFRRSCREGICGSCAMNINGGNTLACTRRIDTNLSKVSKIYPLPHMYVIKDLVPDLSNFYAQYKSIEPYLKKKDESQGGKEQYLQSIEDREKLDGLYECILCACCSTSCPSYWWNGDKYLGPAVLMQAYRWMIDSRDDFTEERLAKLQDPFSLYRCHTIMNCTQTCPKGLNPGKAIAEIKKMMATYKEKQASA
T1 sequence (P35720 30-169): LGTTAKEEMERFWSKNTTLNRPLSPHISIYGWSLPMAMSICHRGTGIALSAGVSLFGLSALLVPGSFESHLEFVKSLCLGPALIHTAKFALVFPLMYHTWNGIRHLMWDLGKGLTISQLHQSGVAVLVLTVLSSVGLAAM
T1 sequence (Q95123 56-158): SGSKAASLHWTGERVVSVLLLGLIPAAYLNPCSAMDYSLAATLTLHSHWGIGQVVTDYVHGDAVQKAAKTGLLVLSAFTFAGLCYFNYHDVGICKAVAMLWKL
Protocol: With regard to the complex II (succinate-ubiquinone oxidoreductase) of the bovine heart, mitochondria prepared according to the method of S. Takamiya et al. (Developmental changes in the respiratory chain of Ascaris mitochondria, Biochim. Biophys. Acta, 1141, 65-71, 1993) were used. Succinate dehydrogenase activity of the complex II was measured by changes of maximum absorption, which was specific to the electron acceptor (DCIP), from oxidized form of 2,6-dichlorophenolindophenol (DCIP, Sigma Inc.) to reduced form with the addition of succinate.
With regard to the complex II of the bovine heart, mitochondria prepared according to the same method described in the referential example 1 was used. Succinate dehydrogenase activity of the complex II was measured by changes of maximum absorption, which was specific to the electron acceptor (DCIP), from oxidized form of DCIP to reduced form with the addition of succinate. […] Reaction rate was measured by that the formation rate of reduced form of DCIP (amM^−1 1 cm^−1: 21) which accepted electron from succinate was measured at absorption changes of 600 nm. Activity was indicated by molar numbers of DCIP reduced per minute. Potassium cyanide, final concentration of 10 mM, was added due to necessity for prevention of leakage of reduction activity by inhibiting terminal oxidase.
With regard to the complex II (succinate-ubiquinone oxidoreductase) of the bovine heart, mitochondria prepared according to the same method described in the referential example 1 was used. Succinate dehydrogenase activity of the complex II was measured by changes of maximum absorption, which was specific to the electron acceptor (DCIP), from oxidized form of DCIP to reduced form with the addition of succinate. […] Reaction rate was measured by that the formation rate of reduced form of DCIP (amM^−1 1 cm^−1: 21) which accepted electron from succinate was measured at absorption changes of 600 nm. Activity was indicated by molar numbers of DCIP reduced per minute. Potassium cyanide, final concentration of 10 mM, was added due to necessity for prevention of leakage of reduction activity by inhibiting terminal oxidase.
With regard to the complex II of the bovine heart, mitochondria prepared according to the same method described in the referential example 1 was used. Succinate dehydrogenase activity of the complex II was measured by changes of maximum absorption, which was specific to the electron acceptor (DCIP), from oxidized form of DCIP to reduced form with the addition of succinate.

[2] = biological target: T2, Ascaris suum complex II (Ascaris suum, UniProt O44074+P92506+P92507); assay: Inhibition of succinate dehydrogenase activity of Ascaris suum complex II (DCIP reduction)
T2 construct: the purified complex II prepared according to the method of F. Saruta et al; from tissue; complex II purified by the method of Saruta et al. 1995
T2 sequence (Q33862 19-645): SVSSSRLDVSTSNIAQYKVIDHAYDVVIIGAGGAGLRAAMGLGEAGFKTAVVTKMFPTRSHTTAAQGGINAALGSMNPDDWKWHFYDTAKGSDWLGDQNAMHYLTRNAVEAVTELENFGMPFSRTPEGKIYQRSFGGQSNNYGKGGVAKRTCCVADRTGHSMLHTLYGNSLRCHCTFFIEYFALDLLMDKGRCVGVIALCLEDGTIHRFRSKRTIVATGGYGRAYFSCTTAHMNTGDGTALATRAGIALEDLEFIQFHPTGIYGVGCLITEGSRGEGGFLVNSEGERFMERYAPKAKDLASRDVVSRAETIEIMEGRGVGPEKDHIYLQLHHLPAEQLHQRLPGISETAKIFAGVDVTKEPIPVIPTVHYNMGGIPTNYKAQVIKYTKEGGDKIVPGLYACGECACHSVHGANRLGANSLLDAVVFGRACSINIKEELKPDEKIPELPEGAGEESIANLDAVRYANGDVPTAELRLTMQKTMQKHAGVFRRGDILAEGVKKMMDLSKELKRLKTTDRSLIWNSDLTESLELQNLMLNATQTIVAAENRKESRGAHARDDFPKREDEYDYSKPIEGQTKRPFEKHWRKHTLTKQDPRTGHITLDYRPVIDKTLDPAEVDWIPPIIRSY
T2 sequence (P92506 32-188): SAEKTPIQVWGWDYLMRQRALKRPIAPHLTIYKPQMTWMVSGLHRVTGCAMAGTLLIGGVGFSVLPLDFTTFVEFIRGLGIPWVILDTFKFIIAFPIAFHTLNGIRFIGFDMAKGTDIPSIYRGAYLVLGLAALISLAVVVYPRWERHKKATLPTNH
T2 sequence (O44074 22-282): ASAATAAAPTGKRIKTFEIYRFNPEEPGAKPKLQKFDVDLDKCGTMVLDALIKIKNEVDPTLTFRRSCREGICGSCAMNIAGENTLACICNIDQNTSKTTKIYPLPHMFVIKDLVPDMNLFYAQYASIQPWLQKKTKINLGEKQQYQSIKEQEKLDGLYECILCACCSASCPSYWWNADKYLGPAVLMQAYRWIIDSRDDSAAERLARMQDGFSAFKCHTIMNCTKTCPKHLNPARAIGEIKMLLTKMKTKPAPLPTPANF
T2 sequence (P92507 26-156): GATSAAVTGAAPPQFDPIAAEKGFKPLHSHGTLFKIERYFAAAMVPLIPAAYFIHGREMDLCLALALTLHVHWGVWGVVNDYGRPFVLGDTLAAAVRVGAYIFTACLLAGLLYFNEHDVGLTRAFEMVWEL
Protocol: With regard to the complex II of the Ascaris suum, the purified complex II prepared according to the method of F. Saruta et al. [Stage-specific Isoforms of Complex II (Succinate-Ubiquinone Oxidoreductase) in Mitochondria from the Parasitic Nematode, Ascaris suum: J. Biol. Chem. 270, 928-932, 1995] was used. Succinate dehydrogenase activity of the complex II was measured by changes of maximum absorption, which was specific to the electron acceptor (DCIP), from oxidized form of DCIP to reduced form with the addition of succinate.
(§1) Namely, ubiquinone-2 and DCIP were added to the level of 100 ìM and 70 ìM, respectively, into 50 mM phosphate buffer (pH 7.5); atpenin A4 was added therein; further the complex II was added thereto; then potassium succinate with final concentration of 10 mM was added; and the reaction was started at 25° C. Reaction rate was measured by that the formation rate of reduced form of DCIP (amM^−1 1 cm^−1: 21) which accepted electron from succinate was measured at absorption changes of 600 nm. Activity was indicated by molar numbers of DCIP reduced per minute. Potassium cyanide, final concentration of 10 mM, was added due to necessity for prevention of leakage of reduction activity by inhibiting terminal oxidase.
(§2) With regard to the complex II of the Ascaris suum, the purified complex II prepared according to the same method of example 3 was used. Succinate dehydrogenase activity of the complex II was measured by changes of maximum absorption, which was specific to the electron acceptor (DCIP), from oxidized form of DCIP to reduced form with the addition of succinate. […] Reaction rate was measured by that the formation rate of reduced form of DCIP (amM^−1 1 cm^−1: 21) which accepted electron from succinate was measured at absorption changes of 600 nm. […]
as §2
(§3) With regard to the complex II of the Ascaris suum, the purified complex II prepared according to the same method of example 3 was used. Succinate dehydrogenase activity of the complex II was measured by changes of maximum absorption, which was specific to the electron acceptor (DCIP), from oxidized form of DCIP to reduced form with the addition of succinate. […]

[3] = biological target: T3, rat liver complex II (Rattus norvegicus, UniProt P21913+Q641Z9+Q6PCT8); assay: Inhibition of succinate dehydrogenase activity of rat liver complex II (DCIP reduction)
T3 construct: from tissue; host or cells: rat liver mitochondria
T3 sequence (Q920L2 35-656 partner): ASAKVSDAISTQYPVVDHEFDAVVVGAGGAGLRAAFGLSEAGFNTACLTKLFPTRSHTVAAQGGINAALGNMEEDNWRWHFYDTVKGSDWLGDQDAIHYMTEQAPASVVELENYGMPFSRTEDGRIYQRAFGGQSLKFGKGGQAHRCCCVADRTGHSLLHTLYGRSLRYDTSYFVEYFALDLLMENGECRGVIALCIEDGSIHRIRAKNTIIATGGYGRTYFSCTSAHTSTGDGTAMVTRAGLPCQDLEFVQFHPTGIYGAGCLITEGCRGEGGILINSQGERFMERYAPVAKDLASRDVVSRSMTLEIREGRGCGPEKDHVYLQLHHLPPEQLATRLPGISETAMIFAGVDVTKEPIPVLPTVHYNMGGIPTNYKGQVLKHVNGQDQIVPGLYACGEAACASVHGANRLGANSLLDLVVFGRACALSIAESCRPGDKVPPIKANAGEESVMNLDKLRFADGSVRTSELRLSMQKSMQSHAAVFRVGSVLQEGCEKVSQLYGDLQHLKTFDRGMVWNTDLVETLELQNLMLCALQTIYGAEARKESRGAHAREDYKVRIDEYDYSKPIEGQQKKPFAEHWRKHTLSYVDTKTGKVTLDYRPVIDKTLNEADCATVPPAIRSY
T3 sequence (P21913 31-282): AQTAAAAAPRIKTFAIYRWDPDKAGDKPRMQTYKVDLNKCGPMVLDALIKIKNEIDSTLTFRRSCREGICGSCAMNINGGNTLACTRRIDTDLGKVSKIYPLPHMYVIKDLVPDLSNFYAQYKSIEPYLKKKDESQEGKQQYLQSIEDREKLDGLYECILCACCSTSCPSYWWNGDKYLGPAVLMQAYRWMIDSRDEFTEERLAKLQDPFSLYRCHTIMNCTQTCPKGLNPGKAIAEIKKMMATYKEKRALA
T3 sequence (Q641Z9 30-169 limits assumed): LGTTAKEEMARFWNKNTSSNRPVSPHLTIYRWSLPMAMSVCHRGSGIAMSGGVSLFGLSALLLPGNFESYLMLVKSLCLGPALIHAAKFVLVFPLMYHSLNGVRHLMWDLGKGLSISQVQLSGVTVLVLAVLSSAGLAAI
T3 sequence (Q6PCT8 57-159): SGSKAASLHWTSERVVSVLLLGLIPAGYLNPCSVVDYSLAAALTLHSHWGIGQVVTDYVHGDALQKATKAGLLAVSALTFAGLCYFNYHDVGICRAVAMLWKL
Protocol: as §1, with “With regard to the complex II of the rat liver, mitochondria prepared according to the same method described in the referential example 1 was used. Succinate dehydrogenase activity of the complex II was measured by changes of maximum absorption, which was specific to the electron acceptor (DCIP), from oxidized form of DCIP to reduced form with the addition of succinate. Namely,” for “Namely,”
as §2, with “the rat liver, mitochondria” for “the Ascaris suum, the purified complex II”, “method described in the referential” for “method of”, “example 1” for “example 3”
as §2, with “the rat liver, mitochondria” for “the Ascaris suum, the purified complex II”, “method described in the referential” for “method of”, “example 1” for “example 3”
as §3, with “the rat liver, mitochondria” for “the Ascaris suum, the purified complex II”, “method described in the referential” for “method of”, “example 1” for “example 3”

[4] = bovine heart mitochondria, ubiquinone-2, DCIP, 10 mM succinate, pH 7.5, 25° C., read-out: 50% inhibitory concentration of the complex II (IC50), Bovine heart
[5] = purified Ascaris suum complex II, ubiquinone-2, DCIP, 10 mM succinate, pH 7.5, 25° C., read-out: 50% inhibitory concentration of the complex II (IC50), Ascaris suum
[6] = rat liver mitochondria, ubiquinone-2, DCIP, 10 mM succinate, pH 7.5, 25° C., read-out: 50% inhibitory concentration of the complex II (IC50), Rat liver

Compound	IC50 [1, 4] [nM]	IC50 [2, 5] [nM]	IC50 [3, 6] [nM]	IC50 [1] [nM]	IC50 [2] [nM]	IC50 [3] [nM]
O=C(CC(=O)C(F)(F)F)c1cccs1 [Thenoyltrifluoro Aceton, thenoyltrifluoroacetone, reference compound]	5800					
CCC(C)CC(C)C(=O)c1c(O)nc(OC)c(OC)c1O (centres unmarked) [Atpenin B, atpenin B]	10	50	20			
COc1[nH]c(=O)c(C(=O)C(C)CC(C)C(Cl)CCl)c(O)c1OC (centres unmarked) [Atpenin A5, atpenin A5]				3.6	32	3.7
C/C=C/CC(C)C(=O)c1c(O)c(OC)c(OC)[nH]c1=O (centres unmarked) [Harzianopyridone, harzianopyridone]	17	2000	200			
COc1nc(O)c(C(=O)C(C)CC(C)C(C)Cl)c(O)c1OC (centres unmarked) [Atpenin A4, atpenin A4]	11	220	24			
CC1=C(C(=O)Nc2ccccc2)SCCO1 [Carboxin, carboxin, reference compound]	1100					
